Results from patent US7208273B2, “Common polymorphism in scn5a implicated in drug-induced cardiac arrhythmia” (University of Utah Research Foundation, priority 2000, dated 2007).

Tested on: African-American individuals with SCN5A variant S1103Y
Conditions: carriers of SCN5A S1103Y variant; three individuals after amiodarone treatment, one after infusion of brevital; QT prolongation exacerbated in these cases
From the text: To determine the genetic basis for these arrhythmias, individuals with drug-induced torsade de pointes and ventricular fibrillation were screened for mutations in known arrhythmia genes.

## C=CCC1(C(C)C#CCC)C(=O)N=C([O-])N(C)C1=O.[Na+] (stereo not shown) [brevital]
  arrhythmia after drug treatment: experienced arrhythmia
